Reference: patent US20120083522A1, “MODULATION OF INFLAMMATORY RESPONSES BY FACTOR XI” (Isis Pharmaceuitcals, inc., priority 2009, published 2012)

Columns and labels:
[1] = Tolerability in Sprague-Dawley rats: body and organ weight (Example 19); assay type: in vivo; settings: 50 mg/kg s.c. twice per week for 6 weeks, change over weight at start of study
From the text: Urine samples were taken before the start of treatment.
The body weights are presented in Table 78 and are expressed as a percent change over the weights taken at the start of the study.

human Factor XI mRNA [2] = assay: Dose-dependent inhibition in cyno primary hepatocytes, electroporation (Example 6); assay type: cell-based, cynomolgus monkey; settings: approx. 16 h
Method: Cells were plated at a density of 35,000 cells per well and transfected via electroporation with 0.74 nM, 2.2 nM, 6.7 nM, 20 nM, 60 nM, and 180 nM concentrations of antisense oligonucleotide, as specified in Table 13. After a treatment period of approximately 16 hours, RNA was isolated from the cells and human Factor XI mRNA levels were measured by quantitative real-time PCR. Human Factor XI primer probe set RTS 2966 was used to measure mRNA levels. Factor XI mRNA levels were adjusted according to total RNA content, as measured by RIBOGREEN®. Results are presented as percent inhibition of human Factor XI, relative to untreated control cells.

human Factor XI mRNA [3] = assay: Dose-dependent inhibition in HepB3 cells, lipofectin (Example 7); assay type: cell-based; settings: approx. 16 h
Method: Cells were plated at a density of 4,000 cells per well and transfected using lipofectin reagent with 2.3 nM, 4.7 nM, 9.4 nM, 18.75 nM, 37.5 nM, and 75 nM concentrations of antisense oligonucleotide, as specified in Table 14. After a treatment period of approximately 16 hours, RNA was isolated from the cells and human Factor XI mRNA levels were measured by quantitative real-time PCR. Human Factor XI primer probe set RTS 2966 was used to measure mRNA levels. Factor XI mRNA levels were adjusted according to total RNA content, as measured by RIBOGREEN®. Results are presented as percent inhibition of Factor XI, relative to untreated control cells.

human Factor XI mRNA [4] = assay: Dose-dependent inhibition in HepG2 cells, lipofectin (Example 4); assay type: cell-based; settings: 16 hours
In short: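 HepG2 cells at 10,000 per well were lipofectin-transfected with 9.375, 18.75, 37.5 or 75 nM antisense oligonucleotide for about 16 h. Factor XI mRNA was quantified by real-time PCR (primer probe set RTS 2966) and normalised to RIBOGREEN total RNA. Values are percent inhibition versus untreated cells.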

human Factor XI mRNA [5] = assay: Dose-dependent inhibition in HepG2 cells, electroporation (Example 4); assay type: cell-based; settings: 16 hours
In short: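 HepG2 cells electroporated with 0.7, 2.2, 6.7 or 20 μM antisense gapmer and harvested after ~16 h. Factor XI mRNA quantified by qRT-PCR (primer probe set RTS 2966), normalised to total RNA (RIBOGREEN). Reported as percent inhibition versus untreated control cells.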

human Factor XI mRNA [6] = assay: Antisense inhibition in HepG2 cells by microwalk gapmers, 75 nM, lipofectin (Example 3); assay type: cell-based; settings: HepG2 cells, 75 nM
In short: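 HepG2 cells (10,000 per well) were transfected with 75 nM gapmer using lipofectin and treated for about 24 h. Factor XI mRNA was quantified by real-time PCR, normalized to RiboGreen total RNA and expressed as percent inhibition versus untreated controls.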

[7] = oligonucleotides targeted to nucleobases 1275 to 1318 of SEQ ID NO: 1

Substance	Percent change in Body weight [1]	percent inhibition of human Factor XI mRNA (human Factor XI mRNA [2]; 0.74 nM)	percent inhibition of human Factor XI mRNA (human Factor XI mRNA [2]; 2.2 nM)	percent inhibition of human Factor XI mRNA (human Factor XI mRNA [2]; 6.7 nM)	percent inhibition of human Factor XI mRNA (human Factor XI mRNA [2]; 20 nM)	percent inhibition of human Factor XI mRNA (human Factor XI mRNA [2]; 60 nM)	percent inhibition of human Factor XI mRNA (human Factor XI mRNA [2]; 180 nM)	percent inhibition of human Factor XI mRNA (human Factor XI mRNA [3]; 2.3 nM)	percent inhibition of human Factor XI mRNA (human Factor XI mRNA [3]; 4.7 nM)	percent inhibition of human Factor XI mRNA (human Factor XI mRNA [3]; 9.4 nM)	percent inhibition of human Factor XI mRNA (human Factor XI mRNA [3]; 18.75 nM)	percent inhibition of human Factor XI mRNA (human Factor XI mRNA [3]; 37.5 nM)	percent inhibition of human Factor XI mRNA (human Factor XI mRNA [3]; 75 nM)	percent inhibition of Factor XI mRNA, relative to untreated control cells (human Factor XI mRNA [4]; 9.375 nM)	percent inhibition of Factor XI mRNA, relative to untreated control cells (human Factor XI mRNA [4]; 18.75 nM)	percent inhibition of Factor XI mRNA, relative to untreated control cells (human Factor XI mRNA [4]; 37.5 nM)	percent inhibition of Factor XI mRNA, relative to untreated control cells (human Factor XI mRNA [4]; 75 nM)	percent inhibition of Factor XI mRNA, relative to untreated control cells (human Factor XI mRNA [5]; 0.7 μM)	percent inhibition of Factor XI mRNA, relative to untreated control cells (human Factor XI mRNA [5]; 2.2 μM)	percent inhibition of Factor XI mRNA, relative to untreated control cells (human Factor XI mRNA [5]; 6.7 μM)	other results
416825 (antisense GCCCTTCATGTCTAGGTCCA; 5-10-5 gapmer, wing sugar chemistry not given here, further chemistry not given here) [compound 416825]	−18%	5%	22%	51%	61%	77%	84%	0%	15%	34%	36%	53%	59%	23%	52%	73%	92%	27%	74%	92%	percent inhibition of Factor XI mRNA, relative to untreated control cells (human Factor XI mRNA [5]; 20 μM): 98%
416838 (antisense GCAACCGGGATGATGAGTGC; 5-10-5 gapmer, wing sugar chemistry not given here, further chemistry not given here) [compound 416838]	−23%	0%	0%	21%	34%	48%	62%	23%	34%	43%	59%	71%	56%	31%	51%	64%	86%	5%	30%	55%	% inhibition of human Factor XI mRNA levels (human Factor XI mRNA [6]; oligonucleotides targeted to nucleobases 1018 to 1042 of SEQ ID NO: 1): 94%; percent inhibition of Factor XI mRNA, relative to untreated control cells (human Factor XI mRNA [5]; 20 μM): 83%
416850 (antisense TGCACAGTTTCTGGCAGGCC; 5-10-5 gapmer, wing sugar chemistry not given here, further chemistry not given here) [compound 416850]	−33%	2%	20%	24%	65%	69%	67%	22%	32%	43%	56%	75%	60%	4%	30%	67%	84%	14%	25%	81%	% inhibition of human Factor XI mRNA levels (human Factor XI mRNA [6]; [7]): 93%; percent inhibition of Factor XI mRNA, relative to untreated control cells (human Factor XI mRNA [5]; 20 μM): 91%
416858 (antisense ACGGCATTGGTGCACAGTTT; 5-10-5 gapmer, wing sugar chemistry not given here, further chemistry not given here) [compound 416858]	−21%	2%	13%	22%	44%	63%	68%	17%	34%	43%	57%	74%	62%	0%	28%	54%	82%	5%	20%	56%	% inhibition of human Factor XI mRNA levels (human Factor XI mRNA [6]; [7]): 93%; percent inhibition of Factor XI mRNA, relative to untreated control cells (human Factor XI mRNA [5]; 20 μM): 86%
416864 (antisense GGCAGCGGACGGCATTGGTG; 5-10-5 gapmer, wing sugar chemistry not given here, further chemistry not given here) [compound 416864]	−24%	0%	1%	15%	23%	47%	64%	24%	37%	42%	66%	76%	63%	18%	43%	62%	78%	32%	65%	78%	% inhibition of human Factor XI mRNA levels (human Factor XI mRNA [6]; [7]): 93%; percent inhibition of Factor XI mRNA, relative to untreated control cells (human Factor XI mRNA [5]; 20 μM): 90%
416925 (antisense GGTGCACAGTTTCTGGCAGG; 3-14-3 chimeric gapmer, wing sugar chemistry not given here, further chemistry not given here) [compound 416925]	−32%	0%	9%	1%	48%	55%	76%	26%	33%	45%	59%	72%	60%	13%	38%	59%	75%	0%	40%	76%	% inhibition of human Factor XI mRNA levels (human Factor XI mRNA [6]; [7]): 98%; percent inhibition of Factor XI mRNA, relative to untreated control cells (human Factor XI mRNA [5]; 20 μM): 80%
